Experimental data: PubChem BioAssay AID1919009 (Molecular Pharmacology Branch, DTP, NCI, 2023)

System: K24384-001-R-PDC complex spheroid growth
Experiment: Anticancer human tumor K24384-001-R-PDC patient-derived pancreatic adenocarcinoma cell line growth inhibition [AhR]
Details: for IC50: curve of first compound; for viability, T/C: stronger effect = lower value; active = viability on the fitted dose curve at most 10% of control; inactive = the rest
Excerpt: Multicellular complex tumor spheroid response to aryl hydrocarbon receptor antagonists in combination with a variety of drugs and investigational agents in selected tumor cell lines
The current study was undertaken to assess response to aryl hydrocarbon receptor antagonists in combination with standard-of-care drugs and investigational agents in solid tumor complex spheroid models. Complex spheroids include a stromal component modeled by human endothelial cells (HUVEC) and fibroblasts modeled by human mesenchymal stem cells (MSCs). The concentration ranges selected for each drug and investigational agent were based upon clinically achievable concentrations if the clinical Cmax of the agent was known.
Compounds. The drugs and investigational agents: BAY 2416964 (NSC825713), GNF351 (NSC835774), CH-223191 (NSC835775), CPI-455 (NSC825282), aza-TdCyd (NSC777586), decitabine (NSC127716), belinostat (NSC758774), entinostat (NSC756642), pevonedistat (NSC761192), tazemetostat (NSC777109), talazoparib (NSC765396), olaparib (NSC753686), selinexor (NSC780203), nedisertib (M3814, NSC802822), bortezomib (NSC756655), venetoclax (NSC766270), doxorubicin (NSC123127), elimusertib (BAY189344, NSC800525), ceralasertib (AZD6738, NSC777638), TAK-243 (NSC785004), alisertib (NSC759677), etoposide (NSC141540), topotecan (NSC609699), eribulin (NSC707389), gemcitabine (NSC613327), carboplatin (NSC241240), cisplatin (NSC119875), and SN-38 (NSC673596) were obtained from the National Cancer Institute (NCI) Developmental Therapeutics Program Chemical Repository (32). The FDA-approved anticancer drug set is available from the Developmental Therapeutics Program at https://dtp.cancer.gov/organization/dscb/obtaining/available plates.htm. […] The stock solutions were prepared in dimethyl sulfoxide (DMSO, Sigma-Aldrich, St. Louis, MO, cat. D2650), except for the platinum compounds which were prepared in saline (Quality Biological, Gaithersburg, MD, cat. 114-055-101), at 800-fold the tested concentration and stored at -70 degrees C prior to their use. All drugs and investigational agents were tested over a range starting from a high concentration at or near the clinical Cmax and decreasing in half-log increments. If the clinical Cmax for an agent had not been determined, the highest concentration tested was 10 microM (Table 1).
Cell Culture. All cells were maintained in an incubator at 37 degrees C and 5% CO2 with 95% humidity. The PDC lines were cultured according to standard operating procedures established by the NCI PDMR (https://pdmr.cancer.gov). Briefly, all PDCs were thawed and cultured in Matrigel-coated flasks prepared with a working solution of 1X Ham's F-12 nutrient mix, without supplementation (Invitrogen, Waltham, MA, cat. 11765054), 100 U/mL penicillin-streptomycin (Invitrogen, cat. 15140122), and 2.5% Matrigel (Corning Inc., Corning, NY, cat. 354248) for the first three passages. All PDCs were cultured in complete DMEM/F-12 media containing advanced DMEM/F-12 (Invitrogen, cat. 12634028), 4.9% defined fetal bovine serum, heat inactivated (HyClone Laboratories Inc., Logan, UT, cat. SH30070.03HI), 389 ng/mL hydrocortisone (Sigma-Aldrich, cat. H4001), 9.7 ng/mL human EGF recombinant protein (Invitrogen, cat. PHG0313), 23.4 microg/mL adenine (Sigma-Aldrich, cat. A2786), 97.3 U/mL penicillin-streptomycin (Invitrogen, cat. 15140122), 1.9 mM L-glutamine (Invitrogen, cat. 25030081), and 9.7 microM Y-27632 dihydrochloride (Tocris Bioscience, Bristol, United Kingdom, cat. 1254). The PDCs were cultured in complete DMEM/F12 media without 10 microM Y-27632 dihydrochloride for at least two passages prior to the screen. The established cell lines NCI-H1341 and […] were cultured in DMEM/F-12, HEPES (Invitrogen, cat. 11330032), 5% defined fetal bovine serum (HyClone Laboratories Inc., cat. SH30070.03), ITS premix universal culture supplement [insulin (5 microg/mL), transferrin (5 microg/mL), and selenious acid (5 ng/mL)] […]

[1] = second compound 0.1 µM, first compound 0.0316 µM
[2] = second compound 0.1 µM, first compound 0.1 µM
[3] = second compound 0.1 µM, first compound 0.316 µM
[4] = second compound 0.1 µM, first compound 1 µM
[5] = second compound 0.1 µM, first compound 3.16 µM
[6] = second compound 0.1 µM, first compound 10 µM
[7] = second compound 0.316 µM, first compound 0.0316 µM
[8] = second compound 0.316 µM, first compound 0.1 µM
[9] = second compound 0.316 µM, first compound 0.316 µM
[10] = second compound 0.316 µM, first compound 1 µM
[11] = second compound 0.316 µM, first compound 3.16 µM
[12] = second compound 0.316 µM, first compound 10 µM
[13] = second compound 1 µM, first compound 0.0316 µM
[14] = second compound 1 µM, first compound 0.1 µM
[15] = second compound 1 µM, first compound 0.316 µM
[16] = second compound 1 µM, first compound 1 µM
[17] = second compound 1 µM, first compound 3.16 µM
[18] = second compound 1 µM, first compound 10 µM
[19] = second compound 3.16 µM, first compound 0.0316 µM
[20] = second compound 3.16 µM, first compound 0.1 µM
[21] = second compound 3.16 µM, first compound 0.316 µM
[22] = second compound 3.16 µM, first compound 1 µM
[23] = second compound 3.16 µM, first compound 3.16 µM
[24] = second compound 3.16 µM, first compound 10 µM
[25] = second compound 10 µM, first compound 0.0316 µM
[26] = second compound 10 µM, first compound 0.1 µM
[27] = second compound 10 µM, first compound 0.316 µM
[28] = second compound 10 µM, first compound 1 µM
[29] = second compound 10 µM, first compound 3.16 µM
[30] = second compound 10 µM, first compound 10 µM
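For viability, T/C in this document: percent of DMSO vehicle-treated spheroid viability set as 100%.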

Nc1ccccc1NC(=O)c1ccc(CNC(=O)OCc2cccnc2)cc1 + Cc1ccccc1N=Nc1ccc(NC(=O)c2ccnn2C)c(C)c1
1410 nM: IC50 (second compound 3.16 µM)
active: viability, T/C [6] 7.04% | viability, T/C [12] 6.55% | viability, T/C [18] 5.37% | viability, T/C [24] 4.36% | viability, T/C [30] 6.31%
1810 nM: IC50 (second compound 0.1 µM)
1500 nM: IC50 (second compound 10 µM)
1330 nM: IC50 (second compound 1 µM)
1710 nM: IC50 (second compound 0.316 µM)
inactive: viability, T/C [1] 100% | viability, T/C [2] 93.9% | viability, T/C [3] 83.2% | viability, T/C [4] 63.6% | viability, T/C [5] 37% | viability, T/C [7] 105% | viability, T/C [8] 104% | viability, T/C [9] 78.2% | viability, T/C [10] 68.7% | viability, T/C [11] 32.3% | viability, T/C [13] 95.1% | viability, T/C [14] 94.7% | viability, T/C [15] 67.9% | viability, T/C [16] 60.2% | viability, T/C [17] 30.4% | viability, T/C [19] 85.9% | viability, T/C [20] 78.3% | viability, T/C [21] 80.6% | viability, T/C [22] 52.9% | viability, T/C [23] 34% | viability, T/C [25] 81.8% | viability, T/C [26] 84.1% | viability, T/C [27] 80.4% | viability, T/C [28] 54.5% | viability, T/C [29] 35.2%

COc1cccc2c1C(=O)c1c(O)c3c(c(O)c1C2=O)CC(O)(C(=O)CO)CC3OC1CC(N)C(O)C(C)O1 (stereo not given) + CC(CO)NC(=O)c1cc(-c2ccc(Cl)cc2)nn(-c2cnn(C)c2)c1=O
78 nM: IC50 (second compound 0.1 µM)
52.4 nM: IC50 (second compound 10 µM)
inactive: viability, T/C [1] 60.8% | viability, T/C [2] 45.7% | viability, T/C [3] 26.5% | viability, T/C [4] 8.5% | viability, T/C [7] 62% | viability, T/C [8] 46.9% | viability, T/C [9] 22.6% | viability, T/C [13] 64.4% | viability, T/C [14] 43% | viability, T/C [15] 22.3% | viability, T/C [19] 58.1% | viability, T/C [20] 44.5% | viability, T/C [21] 24.4% | viability, T/C [25] 52.8% | viability, T/C [26] 46.4% | viability, T/C [27] 17.9%
71.2 nM: IC50 (second compound 1 µM)
67.7 nM: IC50 (second compound 3.16 µM)
active: viability, T/C [5] 2.41% | viability, T/C [6] 9.56% | viability, T/C [10] 5.23% | viability, T/C [11] 3.01% | viability, T/C [12] 8.52% | viability, T/C [16] 5.55% | viability, T/C [17] 2.67% | viability, T/C [18] 9.64% | viability, T/C [22] 4.46% | viability, T/C [23] 3.77% | viability, T/C [24] 8.98% | viability, T/C [28] 2.07% | viability, T/C [29] 3.16% | viability, T/C [30] 10.2%
83.2 nM: IC50 (second compound 0.316 µM)
